Measurements as given in patent US10654884B2 (Vitae Pharmaceuticals, Inc., priority 2014, dated 2020).

How the values were obtained:
human CD73 = biological target: T1, human CD73 (Homo sapiens, UniProt P21589); experiment: Inhibition of 5′-Nucleotidase Activity of CD73 (Assay 1); format: biochemical; conditions: human CD73 4 ng/ml, 50 μM CMP, 20 min at RT, malachite green readout; read-out: Assay 1: IC50, inhibition of 5′-nucleotidase activity of CD73
T1 construct: purchased R&D Systems 5795-EN-010
T1 sequence (P21589 27-549): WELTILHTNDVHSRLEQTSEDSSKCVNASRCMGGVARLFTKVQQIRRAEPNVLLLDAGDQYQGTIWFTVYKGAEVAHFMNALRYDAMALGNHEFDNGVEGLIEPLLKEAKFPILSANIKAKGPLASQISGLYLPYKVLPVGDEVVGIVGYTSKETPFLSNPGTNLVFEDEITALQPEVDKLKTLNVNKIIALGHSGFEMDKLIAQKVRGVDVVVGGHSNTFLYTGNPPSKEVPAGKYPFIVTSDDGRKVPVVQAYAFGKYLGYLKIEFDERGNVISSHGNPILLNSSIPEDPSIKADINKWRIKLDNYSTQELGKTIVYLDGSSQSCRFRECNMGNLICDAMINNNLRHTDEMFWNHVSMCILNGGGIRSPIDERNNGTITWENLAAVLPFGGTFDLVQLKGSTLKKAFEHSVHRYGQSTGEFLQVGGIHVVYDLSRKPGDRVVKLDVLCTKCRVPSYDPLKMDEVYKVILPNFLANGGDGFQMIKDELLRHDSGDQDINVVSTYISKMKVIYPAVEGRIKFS
In short: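 Human CD73 (4 ng/ml final) was incubated with 50 μM CMP in 25 mM Tris-HCl pH 7.4, 0.005% Brij-35 for 20 min at RT. Reactions were stopped with malachite green reagent and absorbance was read at 620 nm. IC50 came from a 4-parameter logistic fit.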

[1] = biological target: T2, CD73 on U138 neuroglioma cells (Homo sapiens, UniProt P21589); experiment: Inhibition of Ecto-5′-Nucleotidase Activity in U138 Neuroglioma Cells (Assay 2); format: cell-based; conditions: 50 μM CMP, 2 hr at 37° C., malachite green readout, read-out: Assay 2: IC50, inhibition of ecto-5′-nucleotidase activity in U138 neuroglioma cells
T2 construct: U138 neuroglioma cells, which express CD73 on their surface; endogenous in cells; host or cells: U138 neuroglioma cells (ATCC)
T2 sequence (P21589 27-549): T1 sequence (P21589 27-549)
In short: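 Whole-cell CD73 activity in U138 human neuroglioma cells seeded the day before, washed free of phosphate, then given test compound dilutions with 50 μM CMP in HEPES-buffered saline, pH 7.4, DMSO ≤0.1%. Incubated 2 hr at 37° C; released inorganic phosphate in supernatant measured by malachite green; IC50 by nonlinear regression.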

| Compound | IC50 (human CD73) | IC50 [1] |
| --- | --- | --- |
| Nc1nc(Cl)nc2c1ncn2[C@@H]1O[C@H](CO[C@H](C(=O)OCc2ccccc2)P(=O)(O)O)[C@@H](O)[C@H]1O [Example 16a, ((S)-1-(((2R,3S,4R,5R)-5-(6-amino-2-chloro-9H-purin-9-yl)-3,4-dihydroxytetrahydrofuran-2-yl)methoxy)-2-(benzyloxy)-2-oxoethyl)phosphonic Acid] | 100 to 1000 nM | > 1000 nM |
| CCNc1nc(Cl)nc2c1ncn2[C@@H]1O[C@H](CO[C@](C)(C(=O)OCC)P(=O)(O)O)[C@@H](O)[C@H]1O [Example 29a, ((S)-2-(((2R,3S,4R,5R)-5-(2-chloro-6-(ethylamino)-9H-purin-9-yl)-3,4-dihydroxytetrahydrofuran-2-yl)methoxy)-1-ethoxy-1-oxopropan-2-yl)phosphonic Acid] | 100 to 1000 nM | 100 to 1000 nM |
| CCOC(=O)[C@@H](OC[C@H]1O[C@@H](n2cnc3c(N)nc(C#N)nc32)[C@H](O)[C@@H]1O)P(=O)(O)O (single isomer, unassigned) [Example 45a] | 100 to 1000 nM | 100 to 1000 nM |
| CCOC(=O)C(OC[C@H]1C[C@@H](n2nnc3c(NC[C@H]4CCOC4)nc(Cl)nc32)[C@H](O)[C@@H]1O)P(=O)(O)O (stereo partly drawn) [Example 89, (1-(((1R,2R,3S,4R)-4-(5-chloro-7-((((R)-tetrahydrofuran-3-yl)methyl)amino)-3H-[1,2,3]triazolo[4,5-d]pyrimidin-3-yl)-2,3-dihydroxycyclopentyl)methoxy)-2-ethoxy-2-oxoethyl)phosphonic Acid] | < 100 nM | < 100 nM |
| CNc1nc(Cl)nc2c1ncn2[C@@H]1O[C@H](COC(C(F)(F)F)P(=O)(O)O)[C@@H](O)[C@H]1O (single isomer, unassigned) [Example 100] | 100 to 1000 nM | < 100 nM |
| Nc1nc(Cl)nc2c1ncn2[C@@H]1O[C@H](COC(Cc2nccs2)(C(=O)O)C(=O)O)[C@@H](O)[C@H]1O [Example 94, 2-(((2R,3S,4R,5R)-5-(6-amino-2-chloro-9H-purin-9-yl)-3,4-dihydroxytetrahydrofuran-2-yl)methoxy)-2-(thiazol-2-ylmethyl)malonic acid] | < 100 nM | < 100 nM |
| O=C(O)C(OC[C@H]1O[C@@H](n2cnc3c(Nc4ccccc4)ncnc32)[C@H](O)[C@@H]1O)P(=O)(O)O (stereo partly drawn) [Example 65, 2-(((2R,3S,4R,5R)-3,4-dihydroxy-5-(6-(phenylamino)-9H-purin-9-yl)tetrahydrofuran-2-yl)methoxy)-2-phosphonoacetic acid] | 100 to 1000 nM | 100 to 1000 nM |
| Nc1nc(Cl)nc2c1ncn2[C@@H]1O[C@H](COC(Cc2ccccc2)(C(=O)O)C(=O)O)[C@@H](O)[C@H]1O [Example 7, 2-(((2R,3S,4R,5R)-5-(6-amino-2-chloro-9H-purin-9-yl)-3,4-dihydroxytetrahydrofuran-2-yl)methoxy)-2-benzylmalonic acid] | < 100 nM | < 100 nM |
| CCOC(=O)[C@H](OC[C@H]1O[C@@H](n2cnc3c(OCC)nc(Cl)nc32)[C@H](O)[C@@H]1O)P(=O)(O)O (single isomer, unassigned) [Example 27] | < 100 nM | 100 to 1000 nM |
| CCOC(=O)[C@H](OC[C@H]1O[C@@H](n2cnc3c(NC4CCCC4)nc(Cl)nc32)[C@H](O)[C@@H]1O)P(=O)(O)O (single isomer, unassigned) [Example 25] | < 100 nM | < 100 nM |
| CCOC(=O)[C@@H](OC[C@H]1O[C@@H](n2cnc3c(-n4ccnc4)nc(Cl)nc32)[C@H](O)[C@@H]1O)P(=O)(O)O (single isomer, unassigned) [Example 26a] | 100 to 1000 nM | 100 to 1000 nM |
| CCN(CC)C(=O)[C@H](OC[C@H]1O[C@@H](n2cnc3c(N)nc(Cl)nc32)[C@H](O)[C@@H]1O)P(=O)(O)O (single isomer, unassigned) [Example 82a] | < 100 nM | 100 to 1000 nM |
| CCOC(=O)[C@@H](OC[C@H]1O[C@@H](n2cnc3c(NC4CC4)nc(Cl)nc32)[C@H](O)[C@@H]1O)P(=O)(O)O (single isomer, unassigned) [Example 22a] | 100 to 1000 nM | 100 to 1000 nM |
| CCOC(=O)[C@@H](OC[C@H]1O[C@@H](n2cnc3c(N)nc(-c4ncco4)nc32)[C@H](O)[C@@H]1O)P(=O)(O)O (single isomer, unassigned) [Example 49a] | 100 to 1000 nM | > 1000 nM |
| CCOC(=O)[C@H](OC[C@H]1O[C@@H](n2cnc3c(N)nc(-c4ncco4)nc32)[C@H](O)[C@@H]1O)P(=O)(O)O (single isomer, unassigned) [Example 49] | < 100 nM | 100 to 1000 nM |
| CCOC(=O)C(SC[C@H]1O[C@@H](n2cnc3c(N)nc(Cl)nc32)[C@H](O)[C@@H]1O)P(=O)(O)O (stereo partly drawn) [Example 99, (1-((((2S,3S,4R,5R)-5-(6-amino-2-chloro-9H-purin-9-yl)-3,4-dihydroxytetrahydrofuran-2-yl)methyl)thio)-2-ethoxy-2-oxoethyl)phosphonic Acid] | 100 to 1000 nM | 100 to 1000 nM |
| CCOC(=O)[C@H](OC[C@H]1O[C@@H](n2cnc3c(N)nc(CC(C)C)nc32)[C@H](O)[C@@H]1O)P(=O)(O)O (single isomer, unassigned) [Example 46] | 100 to 1000 nM | 100 to 1000 nM |
| Nc1nc(Cl)nc2c1ncn2[C@@H]1O[C@H](COC(Cc2ccccn2)(C(=O)O)C(=O)O)[C@@H](O)[C@H]1O [Example 93, 2-(((2R,3S,4R,5R)-5-(6-amino-2-chloro-9H-purin-9-yl)-3,4-dihydroxytetrahydrofuran-2-yl)methoxy)-2-(pyridin-2-ylmethyl)malonic acid] | < 100 nM | < 100 nM |
| CCOC(=O)C(OC[C@H]1O[C@@H](n2cnc3c(N)nc(SC)nc32)[C@H](O)[C@@H]1O)P(=O)(O)O (stereo partly drawn) [Example 43, (1-(((2R,3S,4R,5R)-5-(6-amino-2-(methylthio)-9H-purin-9-yl)-3,4-dihydroxytetrahydrofuran-2-yl)methoxy)-2-ethoxy-2-oxoethyl)phosphonic Acid] | 100 to 1000 nM | > 1000 nM |
| CCOC(=O)[C@@H](OC[C@H]1O[C@@H](n2cnc3c(N)nc(Cc4ccccc4)nc32)[C@H](O)[C@@H]1O)P(=O)(O)O (single isomer, unassigned) [Example 39a] | > 1000 nM | > 1000 nM |
| Nc1nc(I)nc2c1ncn2[C@@H]1O[C@H](CO[C@@H](C(=O)O)P(=O)(O)O)[C@@H](O)[C@H]1O [Example 59a, (R)-2-(((2R,3S,4R,5R)-5-(6-amino-2-iodo-9H-purin-9-yl)-3,4-dihydroxytetrahydrofuran-2-yl)methoxy)-2-phosphonoacetic Acid] | < 100 nM | 100 to 1000 nM |
| Cc1nnc(C(OC[C@H]2O[C@@H](n3cnc4c(N)nc(Cl)nc43)[C@H](O)[C@@H]2O)P(=O)(O)O)o1 (single isomer, unassigned) [Example 21a] | 100 to 1000 nM | > 1000 nM |
| CCOC(=O)[C@@H](OC[C@H]1O[C@@H](n2cnc3c(NC)nc(Cl)nc32)[C@H](O)[C@@H]1O)P(=O)(O)O (single isomer, unassigned) [Example 23a] | 100 to 1000 nM | 100 to 1000 nM |
| CCOC(=O)[C@H](OC[C@H]1O[C@@H](n2cnc3c(N)nc(-c4cc(F)cc(F)c4)nc32)[C@H](O)[C@@H]1O)P(=O)(O)O (single isomer, unassigned) [Example 41] | 100 to 1000 nM | > 1000 nM |
| CC(C)(C)OC(=O)[C@@H](OC[C@H]1O[C@@H](n2cnc3c(N)nc(Cl)nc32)[C@H](O)[C@@H]1O)P(=O)(O)O (single isomer, unassigned) [Example 15a] | 100 to 1000 nM | 100 to 1000 nM |
| O=C(O)C(OC[C@H]1O[C@@H](n2cnc3c(NO)nc(I)nc32)[C@H](O)[C@@H]1O)P(=O)(O)O (stereo partly drawn) [Example 59b, 2-(((2R,3S,4R,5R)-3,4-dihydroxy-5-(6-(hydroxyamino)-2-iodo-9H-purin-9-yl)tetrahydrofuran-2-yl)methoxy)-2-phosphonoacetic acid] | < 100 nM | 100 to 1000 nM |
| CS(=O)(=O)c1ccccc1CC(OC[C@H]1O[C@@H](n2cnc3c(N)nc(Cl)nc32)[C@H](O)[C@@H]1O)(C(=O)O)C(=O)O [Example 86, 2-(((2R,3S,4R,5R)-5-(6-amino-2-chloro-9H-purin-9-yl)-3,4-dihydroxytetrahydrofuran-2-yl)methoxy)-2-(2-(methylsulfonyl)benzyl)malonic acid] | < 100 nM | 100 to 1000 nM |
| CCOC(=O)[C@H](OC[C@H]1O[C@@H](n2cnc3c(-n4ccnc4)nc(Cl)nc32)[C@H](O)[C@@H]1O)P(=O)(O)O (single isomer, unassigned) [Example 26] | < 100 nM | < 100 nM |
